Test results reported in patent US8980879B2 (AbbVie Inc., priority 2013, dated 2015).
Marks after values point to notes of the source that are not given here.

Key:
[1] = test system: OPM-2 human multiple myeloma cancer xenograft; test: Xenograft tumor growth inhibition assay (OPM-2); format: in vivo, mice; details: for % TGI: QDx21, female SCID-beige mice; for % removed from study: QDx21, removed due to morbidity or weight loss in excess of 20%
Experimental: Xenograft Tumor Growth Inhibition Assay
The effect of compounds of the examples to inhibit the growth of OPM-2 xenograft tumors implanted in mice was evaluated. A suspension of cancer cells (5×10^6 per 0.1 mL) prepared in RPMI culture medium (Invitrogen, Carlsbad, Calif.) was diluted 1:1 with a solution of Matrigel™ (BD Biosciences, Franklin Lakes, N.J.) and inoculated subcutaneously into the right hind flank of female SCID-beige (Charles River Labs) mice. […] Administration of compound or vehicle was initiated on the day following randomization and continued for 21 days. Tumors were measured twice a week throughout the treatment period using a pair of calipers and tumor volumes were calculated according to the formula V=L×W^2/2 (V: volume, mm^3; L: length, mm. W: width, […]) Tumor growth inhibition was calculated based on the mean tumor volume measured on the first day that the mean volume of the vehicle group exceeded 2000 mm^3 according to the formula % TGI=100−mean tumor volume of treatment group/mean tumor volume of control group×100.

[2] = test system: breast cancer cell line MX-1; test: MX-1 cell line proliferation assay; format: cell-based; details: Homo sapiens, MX1; MX-1 cells, 3-day (72 h) proliferation, Cell Titer Glo; read-out: Cellular proliferation: EC50
Experimental: MX-1 Cell Line Proliferation Assay
The impact of compounds of the Examples on cancer cell proliferation was determined using the breast cancer cell line MX-1 (ATCC) in a 3-day proliferation assay and the data are reported in Table 1. MX-1 cells were maintained in RPMI 1640 medium (Sigma) supplemented with 10% FBS at 37 C.° and an atmosphere of 5% CO2. For compound testing, MX-1 cells were plated in 96-well black bottom plates at a density of 5000 cells/well in 90 μL of culture media and incubated at 37° overnight to allow cell adhesion and spreading. Compound dilution series were prepared in DMSO via a 3-fold serial dilution from 3 mM to 0.1 μM. The DMSO dilution series were then diluted 1:100 in phosphate buffered saline, and 10 μL of the resulted solution were added to the appropriate wells of the MX-1 cell plate. The final compound concentrations in the wells were 3, 1, 0.3, 0.1, 0.03, 0.01, 0.003, 0.001, 0.0003 and 0.0001 μM.
Luminescence readings from the Cell Titer Glo assay were normalized to the DMSO treated cells and analyzed using the GraphPad Prism software with sigmoidal curve fitting to obtain EC50s. The minimum significant ratio (MSR) was determined to evaluate assay reproducibility (Eastwood et al., (2006) J Biomol Screen, 11: 253-261). The overall MSR was determined to be 2.1 and a moving MSR (last six run MSR overtime) has been <2.

[3] = target: T1, BRD4 (BDI_K57-E168) (Homo sapiens, UniProt O60885); test: TR-FRET bromodomain binding assay, BRD4 first bromodomain; details: His-tagged BD1, 100 nM Alexa647 probe; assay protocol D or F as given per row in c1; Ki calculated from IC50
T1 construct: BD1: amino acids K57-E168; made in house
Experimental: (§1) A time-resolved fluorescence resonance energy transfer (TR-FRET) assay was used to determine the affinities of compounds of the Examples listed in Table 1 for each bromodomain of BRD4. His-tagged first (BD1: amino acids K57-E168) and second (BD2: amino acids E352-E168) bromodomains of BRD4 were expressed and purified. An Alexa647-labeled BET-inhibitor was used as the fluorescent probe in the assay.
(§2) Compound dilution series were prepared in DMSO via an approximately 3-fold serial dilution from one of the following:
(§3) Assay method D: 500 μM-8.5 nM
(§4) Assay method E: 0.47 mM to 7.8 nM
(§5) Assay method F: 250 μM-4.2 nM
(§6) Assay method G: 0.047 mM to 0.78 nM
(§7) or 5-fold serial dilution from one of the following:
(§8) Assay method A: 2.5 mM-800 nM
(§9) Assay method B: 2.5 mM-797 nM
(§10) For Assay methods A, C, D, and F: Compounds were then diluted 6:100 in assay buffer (20 mM Sodium Phosphate, pH 6.0, 50 mM NaCl, 1 mM Ethylenediaminetetraacetic acid, 0.01% Triton X-100, 1 mM DL-Dithiothreitol) to yield 3× working solutions. Six microliters (μL) of the working solution was then transferred to white, low-volume assay plates (Costar #3673). A 1.5× assay mixture containing His-tagged bromodomain, Europium-conjugated anti-His antibody (Invitrogen PV5596) and the Alexa-647-conjugated probe molecule was also prepared. Twelve μL of this solution were added to the assay plate to reach a final volume of 18 μL.
(§11) For Assay methods B, E, and G: Compound dilutions were added directly into white, low-volume assay plates (Perkin Elmer Proxiplate 384 Plus#6008280) using a Labcyte Echo in conjunction with Labcyte Access and Thermo Multidrop CombinL robotics. Compounds were then suspended in eight microliters (μL) of assay buffer (20 mM Sodium Phosphate, pH 6.0, 50 mM NaCl, 1 mM Ethylenediaminetetraacetic acid disodium salt dihydrate, 0.01% Triton X-100, 1 mM DL-Dithiothreitol) containing His-tagged bromodomain, Europium-conjugated anti-His antibody (Invitrogen PV5596) and Alexa-647-conjugated probe.
(§12) The final concentration of 1× assay mixture for assay methods A, B, C, D, E, F, and G contains 2% DMSO, 8 nM His-tagged bromodomain, 1 nM Europium-conjugated anti-His-tag antibody and 100 nM or 30 nM probe (for BDI or BDII, respectively) and compound concentration in the range of: 50 μM-16 nM for method A, 49.02 μM-15.63 nM for method B, 25 μM-423 pM for method C, 10 μM-169 pM for method D, 9.19 μM 150 pM for method E, 5 μM-85 pM for method F, and 0.92 μM-15 pM for method G.
(§13) After a one-hour equilibration at room temperature, TR-FRET ratios were determined using an Envision multilabel plate reader (Ex 340, Em 495/520).
(§14) TR-FRET data were normalized to the means of 24 no-compound controls (“high”) and 8 controls containing 1 μM un-labeled probe (“low”). Percent inhibition was plotted as a function of compound concentration and the data were fit with the 4 parameter logistic equation to obtain IC50s Inhibition constants (Ki) were calculated from the IC50s, probe Kd and probe concentration. Typical Z′ values were between 0.65 and 0.75. The minimum significant ratio was determined to evaluate assay reproducibility (Eastwood et al., (2006) J Biomol Screen, 11: 253-261). The MSR was determined to be 2.03 for BDI and 1.93 for BDII, and a moving MSR (last six run MSR overtime) for both BDI and BDII was typically <3.

[4] = target: T2, BRD4 (BDII_E352-M457) (Homo sapiens, UniProt O60885); test: TR-FRET bromodomain binding assay, BRD4 second bromodomain
T2 construct: protocol; made in house
Experimental: as §1, §2, §3, §4, §5, §6, §7, §8, §9, §10, §11, §12, §13, §14

[5] = test system: LPS induced IL-6 production; test: LPS (lipopolysaccharide) induced IL-6 production mouse assay; format: in vivo, mice; details: 3 mg/kg oral 1 h before LPS 2.5 mg/kg ip, serum IL-6 2 h after LPS, p<0.05
Experimental: LPS (Lipopolysaccharide) Induced IL-6 Production Mouse Assay
Compounds of the Examples listed in Table 2 were assayed for their ability to inhibit LPS (lipopolysaccharide) induced IL-6 (Interleukin-6) production in mice. Fox Chase SCID® female mice (Charles Rivers Labs, 5 per group) or CD1 female mice (5 mice per group) received an intraperitoneal challenge of lipopolysaccharide (2.5 mg/kg, L2630 E. coli 0111:B4) one hour after oral administration of compounds. Mice were euthanized 2 hours after lipopolysaccharide injection, blood was removed by cardiac puncture, and then the serum harvested from the blood samples was frozen at −80° C. On the day of the assay the serum samples were brought to room temperature and then diluted 1:20 in phosphate-buffered saline containing 2% bovine serum albumin. Interleukin-6 measurements were performed using a cytokine assay from Meso Scale Discovery (Gaithersburg, Md.) for mouse serum analysis according to the manufacturer's protocol and read on a SECTOR Imager 6000 (Meso Scale Discovery, Gaithersburg, Md.) instrument. Statistical analysis was performed using Prism software (version 5.0) incorporating Dunnett's one way ANOVA. The IL-6 mean and standard deviation of the group of vehicle treated animals were compared with the IL-6 mean and standard deviation of the group treated with drug. A p value <0.05 means that there is less than a 5% probability that the mean values in the two groups are equal.

Compound	EC50 [2]	Ki [3]	Ki [4]	also measured
Cn1cc2c3c(c[nH]c(=O)c31)CN(c1ccc(F)cc1)c1ccc(CS(C)(=O)=O)cc1-2 [Example 4]	1.39 nM	0.61 nM	2.15 nM	% TGI ([1]; 3.75 mg/kg PO): 68*** %; % removed from study ([1]; 3.75 mg/kg PO): 11%; % TGI ([1]; 7.5 mg/kg PO): 84*** %; % removed from study ([1]; 7.5 mg/kg PO): 44%; % inhibition at 3 mg/kg (LPS induced IL-6 production) ([5]; SCID female mice): 70%
Cn1cc2c3c(c[nH]c(=O)c31)CN(c1ccc(F)cc1F)c1ccc(CS(C)(=O)=O)cc1-2 [Example 5]	3.95 nM	1.76 nM	1.95 nM	% TGI ([1]; 2.5 mg/kg PO): 66*** %; % removed from study ([1]; 2.5 mg/kg PO): 0%; % TGI ([1]; 5.0 mg/kg PO): 81*** %; % removed from study ([1]; 5.0 mg/kg PO): 44%; % inhibition at 3 mg/kg (LPS induced IL-6 production) ([5]; SCID female mice): 71%
CN1CCN(CC(=O)Nc2ccc3c(c2)-c2cn(C)c4c(=O)[nH]cc(c24)CN3c2ccc(F)cc2)CC1 [Example 36]	16.8 nM	1.34 nM	23.2 nM	% inhibition at 3 mg/kg (LPS induced IL-6 production) ([5]; CD1 female mice): 68%
CC(=O)Nc1cnc2c(c1)-c1cn(C)c3c(=O)[nH]cc(c13)CN2c1ccc(Cl)cc1 [Example 72]	10.1 nM	2.56 nM	4.41 nM	% inhibition at 3 mg/kg (LPS induced IL-6 production) ([5]; CD1 female mice): 63%
Cn1cc2c3c(c[nH]c(=O)c31)CN(c1ccc(F)cc1F)c1c-2cc(CS(C)(=O)=O)cc1C1CC1 [Example 78]	6.28 nM	1.29 nM	0.85 nM	–
COC(=O)N1Cc2c[nH]c(=O)c3c2c(cn3C)-c2cc(CS(C)(=O)=O)ccc21 [Example 81]	77.9 nM	4.97 nM	11.1 nM	–
CCS(=O)(=O)Nc1ccc2c(c1)-c1cn(C)c3c(=O)[nH]cc(c13)CN2c1ccccn1 [Example 82]	4.93 nM	0.83 nM	1.47 nM	–

Second part, led by results:

EC50 [2]	Ki [3]	Ki [4]	Compound	also measured
> 1000 nM	2.54 nM	54.6 nM	CC(=O)N1CCC(N2Cc3c[nH]c(=O)c4c3c(cn4C)-c3cc(NC(=O)Cc4cnc(C)s4)ccc32)CC1 [Example 75]	–
332 nM	3.46 nM	17.5 nM	CC(=O)N1CCC(N2Cc3c[nH]c(=O)c4c3c(cn4C)-c3cc(NC(=O)Cc4cc(F)ccc4Cl)ccc32)CC1 [Example 76]	–
> 1000 nM	4.6 nM	112 nM	CC(=O)Nc1ccc2c(c1)-c1cn(C)c3c(=O)[nH]cc(c13)CN2C1CCN(C(C)=O)CC1 [Example 77]	–
106 nM	3.04 nM	14.5 nM	Cn1cc2c3c(c[nH]c(=O)c31)CN(C1CCN(C(=O)OC(C)(C)C)CC1)c1ccc(CS(C)(=O)=O)cc1-2 [Example 80]	–
